Source: patent publication US20090023684A1, “FLUID FOR PERITONEAL DIALYSIS” (priority 2005, published 2009)

Experiment: Body fluid removability of DF using dialysis tube (Experiment 2)
Details: similar experiment, compared with the CNN results; data omitted
Description: Experiments, examining the effects of a cyclic tetrasaccharide on the body fluid removability of DF, were carried out using dialysis tube as follows:
According to the compositions shown in Table 2, DFs comprising glucose or CNN are prepared, respectively. Into a dialysis tube (Molecular weight cut off: 15,000 daltons; diameter: 16 mm; length: 70 mm), 1.5 milliliters each of the DF was poured and sealed using a closer, and then put into one liter of a dialyzing solution, prepared by admixed sodium chloride and dextran (Molecular weight: 60,000 to 90,000 daltons; commercialized by Wako Pure Chemical Industries Ltd., Osaka, Japan) with purified water to give concentrations of 9 g/L and 6 g/L, respectively, for dialysis. The fluid volumes in the dialysis tube at one to 14 hours after the start of dialysis were examined by measuring the weight of the tube. In the experiment, three dialysis tubes were used for a kind of DF. The changes of fluid volumes in the dialysis tubes were measured by calculating the average of the results of three tubes expressed as relative values using each fluid volume at the start of dialysis as 100.

In the case of `OC[C@H]1O[C@@H]2OC[C@H]3O[C@H](O[C@H]4[C@H](O)[C@@H](O)[C@@H](OC[C@H]5O[C@H](O[C@H]1[C@H](O)[C@H]2O)[C@H](O)[C@@H](O)[C@@H]5O)O[C@@H]4CO)[C@H](O)[C@@H](O)[C@@H]3O` [CMM, cyclomaltosylmaltose], the “Fluid volume increase in dialysis tube with CMM used instead of CNN in Table 2” value was “almost the same results”.
